Measured values from patent publication US7244438B2, “Uses for polycationic compounds” (Intercell AG, priority 2001, dated 2007).
Where no end group is shown, it is not given here.

Key:
[1] = tested on: mouse bone marrow-derived CD11c+ dendritic cells; experiment: Cytokine production by dendritic cells incubated with poly-L-arginine and/or CpG-ODN (example 5); assay type: cell-based; details: CD11c+ dendritic cells incubated in vitro
Method: In parallel, in vitro studies were performed to clarify whether the complexation of CpG-ODN by poly-L-arginine can also directly influence the stimulation of mouse bone marrow-derived CD11c^+ dendritic cells by CpG-ODN concerning the production of TNF-α and IL-6. For this purpose, CD11c^+ dendritic cells were incubated either with poly-L-arginine, CpG-ODN or the combination of poly-L-arginine and CpG-ODN (example 5). The levels of TNF-a and IL-6 were determined in the supernatants derived from these cultures.

[2] = tested on: human dendritic cells; experiment: Polyinosinic-polycytidylic acid-induced cytokine production by human dendritic cells; assay type: cell-based; details: human dendritic cells in vitro
[3] = mouse, in vivo, sc

Substance	IL-6 in culture supernatants [1]	TNF-α in culture supernatants [1]	polyinosinic-polycytidylic acid-induced production of pro-inflammatory cytokines [2]	TRP-2 peptide-FITC detectable at the injection site [3]
Poly-L-Arginine	neither TNF-α nor IL-6 were detectable	neither TNF-α nor IL-6 were detectable	inhibits	
TRP-2181-188-peptide-FITC: FITC-labeled TRP-2-Peptide (VYDFFVWL), MHC class I (H-2Kb)-restricted epitope of mouse tyrosinase related protein-2 (not fully specified (N-terminus); also: FITC label; UniProt P29812 181-188, looked up, fragment)				not detectable at the injection site at day 4
